{"source": "patent US7479493B2", "about": "“Substituted benzyl amine compounds” (Janssen Pharmaceutica N.V., priority 2006, dated 2009)", "key": {"[1]": {"molecular_target": "cloned human H3 receptor (Homo sapiens, UniProt Q9Y5N1)", "sequence (Q9Y5N1 whole entry)": "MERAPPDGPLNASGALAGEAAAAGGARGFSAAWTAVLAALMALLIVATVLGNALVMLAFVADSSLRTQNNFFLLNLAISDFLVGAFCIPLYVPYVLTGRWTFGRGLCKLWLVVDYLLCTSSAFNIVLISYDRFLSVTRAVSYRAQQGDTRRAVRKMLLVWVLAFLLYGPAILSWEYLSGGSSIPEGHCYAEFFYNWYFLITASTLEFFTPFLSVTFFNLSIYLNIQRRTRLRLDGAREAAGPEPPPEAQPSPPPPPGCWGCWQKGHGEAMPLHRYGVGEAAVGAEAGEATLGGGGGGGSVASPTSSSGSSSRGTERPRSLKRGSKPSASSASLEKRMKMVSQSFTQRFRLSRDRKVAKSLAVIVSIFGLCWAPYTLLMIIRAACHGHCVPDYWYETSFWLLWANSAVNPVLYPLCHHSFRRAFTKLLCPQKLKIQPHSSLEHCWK", "test": "H3 Receptor Binding", "conditions": "cloned human H3 receptor stably expressed in SK-N-MC cells"}, "[2]": {"molecular_target": "T1, human SERT (Homo sapiens, UniProt P31645)", "T1 construct": "expressed in transfected cells; host or cells: HEK293 membranes", "T1 sequence (P31645 whole entry)": "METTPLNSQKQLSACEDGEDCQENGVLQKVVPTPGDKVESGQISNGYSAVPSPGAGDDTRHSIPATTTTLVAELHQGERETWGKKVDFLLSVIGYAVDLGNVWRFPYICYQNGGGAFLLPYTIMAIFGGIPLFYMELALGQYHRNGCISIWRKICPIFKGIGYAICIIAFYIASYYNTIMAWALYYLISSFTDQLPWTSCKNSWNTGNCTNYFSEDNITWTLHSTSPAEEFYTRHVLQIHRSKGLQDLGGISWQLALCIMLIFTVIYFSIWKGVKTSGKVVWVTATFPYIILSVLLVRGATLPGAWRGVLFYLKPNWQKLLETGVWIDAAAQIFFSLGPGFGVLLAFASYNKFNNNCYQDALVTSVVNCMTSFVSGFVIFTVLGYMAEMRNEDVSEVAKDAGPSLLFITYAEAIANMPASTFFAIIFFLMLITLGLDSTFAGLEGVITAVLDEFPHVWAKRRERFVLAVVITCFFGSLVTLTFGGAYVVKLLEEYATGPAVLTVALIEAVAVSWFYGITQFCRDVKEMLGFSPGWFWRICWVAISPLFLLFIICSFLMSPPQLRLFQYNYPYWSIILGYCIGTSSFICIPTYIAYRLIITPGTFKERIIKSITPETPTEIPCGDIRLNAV", "test": "Human SERT (3H-citalopram binding, HEK293 membranes)", "conditions": "HEK293 membranes expressing the human SERT, rt 1 h", "procedure": "Homogenized HEK293 (Human Embryonic Kidney) membranes expressing the human SERT were incubated with ^3H-citalopram (SERT) at rt for 1 h in 50 mM Tris, 120 mM NaCl, 5 mM KCl (pH 7.4). Nonspecific binding was determined in the presence of 10 μM fluoxetine for the SERT. The membranes were washed and the radioactivity was counted as above."}, "[3]": {"molecular_target": "Rat SERT (Rattus norvegicus, UniProt P31652)", "sequence (P31652 whole entry)": "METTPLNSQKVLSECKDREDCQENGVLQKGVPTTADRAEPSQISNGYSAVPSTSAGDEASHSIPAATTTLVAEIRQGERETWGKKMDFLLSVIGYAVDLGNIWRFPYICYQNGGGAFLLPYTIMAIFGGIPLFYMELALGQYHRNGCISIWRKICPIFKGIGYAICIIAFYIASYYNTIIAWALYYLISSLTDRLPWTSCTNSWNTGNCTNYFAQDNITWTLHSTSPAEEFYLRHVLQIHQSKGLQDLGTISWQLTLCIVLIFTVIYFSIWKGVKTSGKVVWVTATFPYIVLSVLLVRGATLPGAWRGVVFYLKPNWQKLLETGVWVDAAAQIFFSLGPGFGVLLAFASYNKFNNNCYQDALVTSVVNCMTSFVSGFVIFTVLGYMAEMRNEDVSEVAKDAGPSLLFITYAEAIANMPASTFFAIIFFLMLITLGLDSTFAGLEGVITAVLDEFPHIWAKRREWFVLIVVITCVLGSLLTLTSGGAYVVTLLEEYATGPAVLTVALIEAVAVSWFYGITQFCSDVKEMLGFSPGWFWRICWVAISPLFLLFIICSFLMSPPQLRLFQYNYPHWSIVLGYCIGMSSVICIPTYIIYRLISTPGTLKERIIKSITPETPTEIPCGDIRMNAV", "test": "biochemical", "quoted_text": "The supernatant was removed and re-centrifuged at 15,000 rpm for 30 min. […] Membranes were incubated with 0.6 nM [^3H]-Citalopram plus/minus test compounds for 60 min at 25° C. and harvested by rapid filtration over GF/C glass fiber filters (pretreated with 0.3% polyethylenimine) followed by four washes with ice-cold buffer. Nonspecific binding was defined in the presence of 100 μM fluoxetine."}, "[4]": {"molecular_target": "human H3 receptor (Homo sapiens, UniProt Q9Y5N1)", "sequence (Q9Y5N1 whole entry)": "as the sequence (Q9Y5N1 whole entry) above", "test": "Cyclic AMP Accumulation (reporter gene, SK-N-MC cells)", "quoted_text": "Sublines of SK-N-MC cells were created that expressed a reporter construct and the human H3 receptor. The reporter gene (β-galactosidase) is under the control of multiple cyclic AMP responsive elements. In 96-well plates, histamine was added directly to the cell media followed 5 min later by an addition of forskolin (5 μM final concentration). When appropriate, antagonists were added 10 min prior to agonist addition. After a 6-h incubation at 37° C., the media was aspirated and the cells washed with 200 μL of phosphate-buffered saline followed by a second aspiration. […] Color was developed using 25 μL of 1 mg/mL substrate solution (chlorophenolred β-D galactopyranoside; Roche Molecular Biochemicals, Indianapolis, Ind.)."}}, "data": [{"compound": "CNCc1cc(C(=O)N2CCN(C(C)C)CC2)ccc1Oc1cccnc1", "note": "[Example 9, (4-Isopropyl-piperazin-1-yl)-[3-methylaminomethyl-4-(pyridin-3-yloxy)-phenyl]-methanone]", "values": [{"measurement": "Ki", "setting": "[1]", "result": 1, "unit": "nM"}, {"measurement": "Ki", "setting": "[2]", "result": 420, "unit": "nM"}, {"measurement": "Ki", "setting": "[3]", "result": 160, "unit": "nM"}]}, {"compound": "CC(C)N1CCN(C(=O)c2ccc(CNC3CC3)c(Oc3cccnc3)c2)CC1", "note": "[Example 30, [4-Cyclopropylaminomethyl-3-(pyridin-3-yloxy)-phenyl]-(4-isopropyl-piperazin-1-yl)-methanone]", "values": [{"measurement": "Ki", "setting": "[1]", "result": 3, "unit": "nM"}, {"measurement": "Ki", "setting": "[3]", "result": 4000, "unit": "nM"}, {"measurement": "Kb", "setting": "[4]", "result": 0.794, "unit": "nM"}]}, {"compound": "O=C(c1ccc(CNC2CC2)c(Oc2cccnc2)c1)N1CCN(C2CC2)CC1", "note": "[Example 31, [4-Cyclopropylaminomethyl-3-(pyridin-3-yloxy)-phenyl]-(4-cyclopropyl-piperazin-1-yl)-methanone]", "values": [{"measurement": "Ki", "setting": "[1]", "result": 10, "unit": "nM"}, {"measurement": "Ki", "setting": "[3]", "result": 1000, "unit": "nM"}, {"measurement": "Kb", "setting": "[4]", "result": 1.58, "unit": "nM"}]}, {"compound": "CC(C)N1CCN(C(=O)c2ccc(CN3CCCCC3)c(Oc3cccnc3)c2)CC1", "note": "[Example 33, (4-Isopropyl-piperazin-1-yl)-[4-piperidin-1-ylmethyl-3-(pyridin-3-yloxy)-phenyl]-methanone]", "values": [{"measurement": "Ki", "setting": "[1]", "result": 2, "unit": "nM"}, {"measurement": "Kb", "setting": "[4]", "result": 0.316, "unit": "nM"}]}, {"compound": "O=C(c1ccc(CN2CCCCC2)c(Oc2cccnc2)c1)N1CCN(C2CC2)CC1", "note": "[Example 34, (4-Cyclopropyl-piperazin-1-yl)-[4-piperidin-1-ylmethyl-3-(pyridin-3-yloxy)-phenyl]-methanone]", "values": [{"measurement": "Ki", "setting": "[1]", "result": 3, "unit": "nM"}, {"measurement": "Kb", "setting": "[4]", "result": 1.26, "unit": "nM"}]}, {"compound": "CN(C)C1CCN(C(=O)c2ccc(CN3CCCCC3)c(Oc3cccnc3)c2)C1", "note": "(centres unmarked) [Example 35, (3-Dimethylamino-pyrrolidin-1-yl)-[4-piperidin-1-ylmethyl-3-(pyridin-3-yloxy)-phenyl]-methanone]", "values": [{"measurement": "Ki", "setting": "[1]", "result": 7, "unit": "nM"}, {"measurement": "Kb", "setting": "[4]", "result": 2.51, "unit": "nM"}]}, {"compound": "CNCc1ccc(C(=O)N2CCN(C(C)C)CC2)cc1Oc1ccc(Cl)cc1", "note": "[Example 36, [3-(4-Chloro-phenoxy)-4-methylaminomethyl-phenyl]-(4-isopropyl-piperazin-1-yl)-methanone]", "values": [{"measurement": "Ki", "setting": "[1]", "result": 4, "unit": "nM"}, {"measurement": "Ki", "setting": "[3]", "result": 28, "unit": "nM"}, {"measurement": "Kb", "setting": "[4]", "result": 6.31, "unit": "nM"}]}, {"compound": "CNCc1cc(N2CCN(C(C)C)CCC2=O)ccc1Oc1ccc(SC)cc1", "note": "[Example 54, 1-Isopropyl-4-[3-methylaminomethyl-4-(4-methylsulfanyl-phenoxy)-phenyl]-[1,4]diazepan-5-one]", "values": [{"measurement": "Ki", "setting": "[1]", "result": 3, "unit": "nM"}, {"measurement": "Ki", "setting": "[3]", "result": 0.5, "unit": "nM"}, {"measurement": "Kb", "setting": "[4]", "result": 2, "unit": "nM"}]}, {"compound": "CNCc1cc(N2CCCN(C(C)C)CC2)ccc1Oc1ccc(Cl)c(Cl)c1", "note": "[Example 55, [2-(3,4-Dichloro-phenoxy)-5-(4-isopropyl-[1,4]diazepan-1-yl)-benzyl]-methyl-amine]", "values": [{"measurement": "Ki", "setting": "[1]", "result": 27, "unit": "nM"}, {"measurement": "Ki", "setting": "[3]", "result": 10, "unit": "nM"}]}, {"compound": "CNCc1cc(N2CCCN(C3CC3)CC2)ccc1Oc1ccc(Cl)c(Cl)c1", "note": "[Example 56, [5-(4-Cyclopropyl-[1,4]diazepan-1-yl)-2-(3,4-dichloro-phenoxy)-benzyl]-methyl-amine]", "values": [{"measurement": "Ki", "setting": "[1]", "result": 25, "unit": "nM"}, {"measurement": "Ki", "setting": "[3]", "result": 16, "unit": "nM"}]}, {"compound": "CNCc1cc(N2CCN(C3CC3)CCC2=O)ccc1Oc1ccc(SC)cc1", "note": "[Example 57, 1-Cyclopropyl-4-[3-methylaminomethyl-4-(4-methylsulfanyl-phenoxy)-phenyl]-[1,4]diazepan-5-one]", "values": [{"measurement": "Ki", "setting": "[1]", "result": 37, "unit": "nM"}, {"measurement": "Ki", "setting": "[3]", "result": 4, "unit": "nM"}]}, {"compound": "CNCc1cc(N2CC[C@H](N(C)C)C2)ccc1Oc1ccc(SC)cc1", "note": "[Example 58, (S)-Dimethyl-{1-[3-methylaminomethyl-4-(4-methylsulfanyl-phenoxy)-phenyl]-pyrrolidin-3-yl}-amine]", "values": [{"measurement": "Ki", "setting": "[1]", "result": 300, "unit": "nM"}, {"measurement": "Ki", "setting": "[3]", "result": 6, "unit": "nM"}]}, {"compound": "CNCc1cc(C(=O)N2CCN(C3CC3)CC2)ccc1OCc1ccc(Cl)c(Cl)c1", "note": "[Example 59, (4-Cyclopropyl-piperazin-1-yl)-[4-(3,4-dichloro-benzyloxy)-3-methylaminomethyl-phenyl]-methanone]", "values": [{"measurement": "Ki", "setting": "[1]", "result": 70, "unit": "nM"}, {"measurement": "Ki", "setting": "[3]", "result": 4, "unit": "nM"}]}, {"compound": "CSc1ccc(Oc2ccc(CN3CCN(C(C)C)CC3)cc2CNC2CC2)cc1", "note": "[Example 60, Cyclopropyl-[5-(4-isopropyl-piperazin-1-ylmethyl)-2-(4-methylsulfanyl-phenoxy)-benzyl]-amine]", "values": [{"measurement": "Ki", "setting": "[1]", "result": 2, "unit": "nM"}, {"measurement": "Ki", "setting": "[3]", "result": 3, "unit": "nM"}]}, {"compound": "CNCc1cc(CN2CCN(C(C)C)CC2)ccc1Oc1ccc(SC)cc1", "note": "[Example 61, [5-(4-Isopropyl-piperazin-1-ylmethyl)-2-(4-methylsulfanyl-phenoxy)-benzyl]-methyl-amine]", "values": [{"measurement": "Ki", "setting": "[1]", "result": 2, "unit": "nM"}, {"measurement": "Ki", "setting": "[3]", "result": 0.8, "unit": "nM"}]}, {"compound": "CSc1ccc(Oc2ccc(CN3CCN(C(C)C)CC3)cc2CN(C)C)cc1", "note": "[Example 62, [5-(4-Isopropyl-piperazin-1-ylmethyl)-2-(4-methylsulfanyl-phenoxy)-benzyl]-dimethyl-amine]", "values": [{"measurement": "Ki", "setting": "[1]", "result": 21, "unit": "nM"}, {"measurement": "Ki", "setting": "[3]", "result": 1, "unit": "nM"}]}, {"compound": "CCNCc1cc(CN2CCN(C(C)C)CC2)ccc1Oc1ccc(SC)cc1", "note": "[Example 63, Ethyl-[5-(4-isopropyl-piperazin-1-ylmethyl)-2-(4-methylsulfanyl-phenoxy)-benzyl]-amine]", "values": [{"measurement": "Ki", "setting": "[1]", "result": 0.9, "unit": "nM"}, {"measurement": "Ki", "setting": "[3]", "result": 6, "unit": "nM"}]}, {"compound": "CSc1ccc(Oc2ccc(CN3CCN(C(C)C)CC3)cc2CNC(C)C)cc1", "note": "[Example 64, Isopropyl-[5-(4-isopropyl-piperazin-1-ylmethyl)-2-(4-methylsulfanyl-phenoxy)-benzyl]-amine]", "values": [{"measurement": "Ki", "setting": "[1]", "result": 0.5, "unit": "nM"}, {"measurement": "Ki", "setting": "[3]", "result": 7, "unit": "nM"}]}, {"compound": "CSc1ccc(Oc2ccc(CN3CCN(C(C)C)CC3)cc2CN)cc1", "note": "[Example 65, 5-(4-Isopropyl-piperazin-1-ylmethyl)-2-(4-methylsulfanyl-phenoxy)-benzylamine]", "values": [{"measurement": "Ki", "setting": "[1]", "result": 4, "unit": "nM"}, {"measurement": "Ki", "setting": "[3]", "result": 18, "unit": "nM"}]}, {"compound": "CNCc1cc(CN2CCN(C(C)C)C(=O)C2)ccc1Oc1ccc(Cl)c(Cl)c1", "note": "[Example 66, 4-[4-(3,4-Dichloro-phenoxy)-3-methylaminomethyl-benzyl]-1-isopropyl-piperazin-2-one]", "values": [{"measurement": "Ki", "setting": "[1]", "result": 2500, "unit": "nM"}, {"measurement": "Ki", "setting": "[3]", "result": 6, "unit": "nM"}]}, {"compound": "CNCc1cc(CN2CCN(C(C)C)CC2=O)ccc1Oc1ccc(Cl)c(Cl)c1", "note": "[Example 67, 1-[4-(3,4-Dichloro-phenoxy)-3-methylaminomethyl-benzyl]-4-isopropyl-piperazin-2-one]", "values": [{"measurement": "Ki", "setting": "[1]", "result": 6, "unit": "nM"}, {"measurement": "Ki", "setting": "[3]", "result": 4, "unit": "nM"}]}, {"compound": "CNCc1cc(CN2CCC(=O)N(C(C)C)CC2)ccc1Oc1ccc(Cl)c(Cl)c1", "note": "[Example 68, 1-[4-(3,4-Dichloro-phenoxy)-3-methylaminomethyl-benzyl]-4-isopropyl-[1,4]diazepan-5-one]", "values": [{"measurement": "Ki", "setting": "[1]", "result": 6300, "unit": "nM"}, {"measurement": "Ki", "setting": "[3]", "result": 7, "unit": "nM"}]}, {"compound": "CNCc1cc(CN2CCN(C(C)C)CCC2=O)ccc1Oc1ccc(Cl)c(Cl)c1", "note": "[Example 69, 4-[4-(3,4-Dichloro-phenoxy)-3-methylaminomethyl-benzyl]-1-isopropyl-[1,4]diazepan-5-one]", "values": [{"measurement": "Ki", "setting": "[1]", "result": 110, "unit": "nM"}, {"measurement": "Ki", "setting": "[3]", "result": 4, "unit": "nM"}]}, {"compound": "CNCc1cc(CN2CCN(C3CCC3)CCC2=O)ccc1Oc1ccc(Cl)c(Cl)c1", "note": "[Example 70, 1-Cyclobutyl-4-[4-(3,4-dichloro-phenoxy)-3-methylaminomethyl-benzyl]-[1,4]diazepan-5-one]", "values": [{"measurement": "Ki", "setting": "[1]", "result": 19, "unit": "nM"}, {"measurement": "Ki", "setting": "[3]", "result": 5, "unit": "nM"}]}, {"compound": "CNCc1cc(C(=O)NCCN2CCCC2)ccc1Oc1cccc(Cl)c1", "note": "[Example 71, 4-(3-Chloro-phenoxy)-3-methylaminomethyl-N-(2-pyrrolidin-1-yl-ethyl)-benzamide]", "values": [{"measurement": "Ki", "setting": "[1]", "result": 6, "unit": "nM"}, {"measurement": "Ki", "setting": "[3]", "result": 2, "unit": "nM"}]}, {"compound": "CNCc1cc(C(=O)N2CCN(C3CCC3)CC2)ccc1Oc1cccc(Cl)c1", "note": "[Example 72, [4-(3-Chloro-phenoxy)-3-methylaminomethyl-phenyl]-(4-cyclobutyl-piperazin-1-yl)-methanone]", "values": [{"measurement": "Ki", "setting": "[1]", "result": 4, "unit": "nM"}, {"measurement": "Ki", "setting": "[3]", "result": 65, "unit": "nM"}]}, {"compound": "CNCc1cc(N2CCN(C(C)C)CCC2=O)ccc1Oc1ccc(Cl)c(Cl)c1", "note": "[Example 73, 4-[4-(3,4-Dichloro-phenoxy)-3-methylaminomethyl-phenyl]-1-isopropyl-[1,4]diazepan-5-one]", "values": [{"measurement": "Ki", "setting": "[1]", "result": 7.7, "unit": "nM"}, {"measurement": "Ki", "setting": "[2]", "result": 16, "unit": "nM"}, {"measurement": "Ki", "setting": "[3]", "result": 12, "unit": "nM"}, {"measurement": "Kb", "setting": "[4]", "result": 4.47, "unit": "nM"}]}, {"compound": "Cc1ccc(Oc2cc(C(=O)N3CCN(C4CC4)CC3)ccc2CN(C)C)c(C)n1", "note": "[Example 80, (4-Cyclopropyl-piperazin-1-yl)-[4-dimethylaminomethyl-3-(2,6-dimethyl-pyridin-3-yloxy)-phenyl]-methanone]", "values": [{"measurement": "Ki", "setting": "[1]", "result": 140, "unit": "nM"}, {"measurement": "Ki", "setting": "[3]", "result": 500, "unit": "nM"}]}, {"compound": "CN(C)Cc1ccc(C(=O)N2CCN(C3CC3)CC2)cc1OCc1ccccc1", "note": "[Example 81, (3-Benzyloxy-4-dimethylaminomethyl-phenyl)-(4-cyclopropyl-piperazin-1-yl)-methanone]", "values": [{"measurement": "Ki", "setting": "[1]", "result": 67, "unit": "nM"}, {"measurement": "Ki", "setting": "[3]", "result": 8000, "unit": "nM"}]}]}
